Columns and labels:
[1] = tested on: human 18S rDNA gene, 500 bp amplicon; conditions: t0 to t4 d storage (FIG. 15)
Description: Cell-free DNA from 4-4.8 ml stabilized or unstabilized urine was isolated with the QIAsymphony PAXgene Blood ccfDNA Kit (QIAGEN kit) protocol. The QIAsymphony robot mixed urine with proteinase K, binding buffer and magnetic beads. Beads with bound DNA were washed three times and DNA was eluted using 60 μl elution buffer.
To measure the amount of cell-free DNA a real time PCR assay on Abi Prism HT7900 (Life technologies) was performed with 8 μl of eluate. In a 20 μl assay volume using QuantiTect Multiplex PCR Kit reagents (QIAGEN GmbH) two fragments of the human 18S rDNA gene were amplified in a multiplex PCR. Total quantification was achieved by comparison with a standard curve generated with human genomic DNA samples equivalent to 10.000 to 10 copies of human 18s rDNA gene.
Quantification of the 66 bp fragment was used to reflect the total amount of 18S rDNA copies in the urine. Quantification of the 500 bp was used to determine the amount of 18S rDNA copies which derived from apoptotic or mechanically lysed urine cells.
200 ml urine each from four female and two male donors was collected. Aliquots of 10 ml urine were mixed within 15 min after sampling with 1.7 ml PBS or stabilizing reagent. […] The copy numbers of 18s rDNA were determined from duplicate samples in triplicates by real time PCR.

[2] = tested on: human 18S rDNA gene, 66 bp amplicon; assay: Real time PCR of 18S rDNA 66 bp fragment in cell-free DNA from urine
Description: (§1) Cell-free DNA from 4-4.8 ml stabilized or unstabilized urine was isolated with the QIAsymphony PAXgene Blood ccfDNA Kit (QIAGEN kit) protocol.
Total quantification was achieved by comparison with a standard curve generated with human genomic DNA samples equivalent to 10.000 to 10 copies of human 18s rDNA gene.
Quantification of the 500 bp was used to determine the amount of 18S rDNA copies which derived from apoptotic or mechanically lysed urine cells. […] Therefore 500 bp fragments can be considered to be derived from apoptotic, lysed or otherwise destructed urine cells.
All samples were processed in duplicates.
(§2) Cell-free DNA was subsequently purified on the QIAsymphony either directly after collection (t0) or after 1, 3 and 9 days incubation at room temperature. […] Relative yield of Y-chromosomale DYS14 DNA was determined from duplicate samples by real time PCR (no PCR replicates).
200 ml urine each from three donors was collected. […] For processing, the samples were centrifuged 15 min at 1900×g. Supernatant was centrifuged again (10 min 1900×g) and the supernatant from the second centrifugation was used for duplicate purification of cell-free DNA on a QIAsymphony system. The cell pellet obtained after the first centrifugation was resolved in 300 μl PBS. 200 μl of the resuspended cell pellet was used for extraction of the genomic DNA using the QIAamp Blood Mini kit. The remaining 100 μl were centrifuged on a glass slide and stained with Papanicolaou (see FIG. 7). […] Genomic DNA yield was measured on a Nanodrop instrument.
Supernatant was centrifuged again (10 min at 1900×g) and the supernatant from the second centrifugation was used for duplicate purification of cell-free DNA on the QIAsymphony.
For EDTA stabilized samples the overall increase in DNA can be deduced from the observed degradation (Dys 14—see FIG. 16) and increase (18s—see FIGS. 14 and 15).

[3] = tested on: human Y-chromosomale DYS14 gene, 66 bp amplicon; assay: Real time PCR for Y-chromosomal DYS14 DNA: preservation of male cell-free DNA spiked into female urine
Description: as §1
To measure the degradation of cell-free DNA, the relative yield of male cell-free DNA spiked into female samples was analyzed. A real time PCR assay on RotorGene Q (QIAGEN GmbH) was performed with 8 μl of eluate.
Urine from one donor was centrifuged twice to remove all cells from the urine for spike-in into female urine. Urine was collected in larger bottles from two female and two male donors. In case of the two female donors 25 ml centrifuged and therefore cell-free male urine was added to the 200 ml female urine. Approximately 120 ml urine from each donor was filled into BD Vacutainer Urine Collection Cups. Urine was transferred from the cups into two spray dried EDTA tubes, one PAXgene Blood ccfDNA tube and one Streck cell-free DNA BCT tube per donor. One of the EDTA tubes per donor was opened and 1.7 ml of stabilization reagent R1 was added. All tubes were carefully inverted 5 times to mix the urine with the components.
as §2
Urine from one donor was centrifuged twice to remove all cells from the urine for spike in into female urine. 200 ml urine each from six female donors were collected in large bottles and mixed with 25 ml cell-free male urine directly after collection. Aliquots of 10 ml urine ([…]) were mixed with 1.7 ml reagent. […] All samples were processed in duplicates. Real time PCR for y-chromosomale DYS14 DNA was performed from duplicate samples.
To analyse the effect of pH on cell-free DNA preservation, urine from one donor was centrifuged twice to remove all cells from the urine for spike in into female urine. 200 ml urine each from four female donors were collected in large bottles and mixed with 25 ml cell-free male urine directly after collection. […]

## O=C(O)CN(CCN(CC(=O)O)CC(=O)O)CC(=O)O [EDTA, Ethylenediaminetetraacetic acid]
[1]
  decrease in the 500 bp fragment: approx. 32 fold
[2]; 4 days storage at RT (FIG. 14)
  Delta Ct t0-t4 d 18 s 66 bp: 2
[2]; Example 2, BD Vacutainer cup to tubes, 1, 3 and 9 days at RT, 4 donors (FIG. 3)
  total DNA in urine over storage (18s rDNA 66 bp copies versus t0), words: nor an increase in total DNA comprised in the urine due to DNA release from cells
[2]; deduced from observed degradation (Dys 14) and increase (18s), t0 to t4 d
  Overall increase (in DNA resulting from cells): 4 × 4 = 16 fold
[2]; t0 to t4 d at RT
  Increase (of 18S 66 bp DNA, from Delta Ct): 4 fold
[2]; t0 to t4 d storage (FIG. 14)
  change in the 66 bp fragment: small increase
[3]; Example 2, 2 female donors, 1, 3 and 9 days at RT (FIG. 4)
  preservation of spiked in male cell-free DNA (DYS14 delta Ct versus t0), words: neither prevents sufficiently cell free DNA degradation
[3]; male cell-free urine spiked in female urine, 4 days storage at RT (FIG. 16)
  Delta Ct t0-t4 d Dys 14: ~2
[3]; t0 to t4 d at RT
  Reduction (of DYS14 DNA, from Delta Ct): 4 fold

— patent US20220090998A1, “URINE STABILIZATION” (QIAGEN GmbH, priority 2019, published 2022)
